What was measured:
Format in all cases: cell-based
breast cancer cell = experiment: Cell viability, breast cancer cells (panel statement); conditions: text summary of Tables 4A & 4B; read-out: IC50, breast cancer cell growth
Experimental: (§1) Antitumor activity of the compounds and doxorubicin as a positive control was assessed by using the CellTiter-Blue Cell Viability Assay (Promega, #G8082) or CellTiter-Glow® Luminescent Cell Viability assay (Promega #G7572) according to the manufacturer's instructions. The compounds were tested at 5 or 6 concentrations in half-log increments (highest concentration 30 μM or 100 μM) in duplicate or triplicate well conditions.
(§2) Tumor cells were grown at 37° C. in a humidified atmosphere with 5% CO2 in RPMI 1640 or DMEM medium, supplemented with 10% (v/v) fetal calf serum and 50 μg/ml gentamicin for up to 20 passages, and were passaged once or twice weekly. Cells were harvested using TrypLE or PBS buffer containing 1 mM EDTA, and the percentage of viable cells was determined using a CASY Model TI cell counter (OMNI Life Science). Cells were harvested from exponential phase cultures, counted and plated in 96 well flat-bottom microtiter plates at a cell density depending on the cell line's growth rate (4,000-20,000 cells/well depending on the cell line's growth rate, up to 60,000 for hematological cancer cell lines) in RPMI 1640 or DMEM medium supplemented with 10% (v/v) fetal calf serum and 50 μg/ml gentamicin (140 μl/well). […] Viability of cells was quantified by the CellTiter-Blue® cell viability assay (Promega G8081) or CellTiter-Glow® Luminescent Cell Viability assay (Promega #G7572). […]

esophagus PDX = experiment: Cell viability, esophagus PDX (panel statement); conditions: text summary of Table 9; read-out: IC50, esophagus PDX growth
Experimental: (§3) PDX-derived cell cultures were obtained from tumors explanted from mice and isolated by mechanical and enzymatic dissociation. […] Cells were harvested and seeded in 96-wells plates at a density of 1.25 to 5×10^3 cells/well for cytotoxicity assays. Cells were incubated 48 h at 37° C. prior to addition of test molecules and vehicle (DMSO, 0.1%) at desired final concentrations. Cell viability was assessed before drugs' addition (To) and 5 days after test molecules addition by measuring ATP cell content using CellTiter-Glo® Luminescent Cell Viability Assay (Promega) according to the manufacturer's instructions. Luciferase activity was measured on a luminometer (PerkinElmer® EnVision™). Each concentration of compounds was tested in triplicate.
(§4) Viability was calculated as a percentage of ATP value compared to vehicle treated controls.
(§5) For PDX primary cell cultures, the tumour tissue was washed with PBS containing antibiotic-antimycotic and non-tumour tissue and necrotic tumour tissues were separated. The tumour tissue was transferred to a new dish and cut into 1˜2 mm^3 fragments, resuspended in RPMI-1640 medium and centrifuged at 1,200 rpm for 6 min at room temperature. The pelleted material was resuspended with 15 mL of Tumour Cell Digestion Solution and incubated at 37° C. for 1 hour with agitation. […]

brain cancer cell = experiment: Cell viability, brain cancer cells (panel statement); conditions: text summary of Tables 3A-3C; read-out: IC50, brain cancer cell growth
Experimental: as §1, §2

lung PDX = experiment: Cell viability, lung PDX (panel statement); conditions: text summary of Table 15; read-out: IC50, lung PDX growth
Experimental: as §3, §4, §5

## COc1c(O)ccc2c(=O)c(O)c(-c3ccc(CCCC[P+](c4ccccc4)(c4ccccc4)c4ccccc4)cc3)oc12 [SND190, (4-(4-(3,7-Dihydroxy-8-methoxy-4-oxo-4H1-chromen-2-yl)phenyl)butyl)triphenylphosphonium bromide]
Breast cancer cell
  IC50: < 5 µM
Esophagus PDX
  IC50: < 20 µM
Brain cancer cell
  IC50: < 20 µM
Lung PDX
  IC50: < 20 µM

Reference: patent publication US20240124503A1, “HETEROAROMATIC PHOSPHONIUM SALTS AND THEIR USE TREATING CANCER” (FLORATEK PHARMA S.A., priority 2021, published 2024)
